Assay results published in US8697694B2, “Substituted pyridine and pyrimidine derivatives and their use in treating viral infections” (priority 2008, dated 2014).

Tested on: HCV replicon cells
Assay: Cell-based HCV replicon assay (replicon RNA level by real time PCR, Taqman)
Details: HCV replicon cells, replicon RNA level by real time PCR, harvested day 3; read-out: EC90 (μM) range
Procedure: Assays Cell-Based HCV Replicon Assay
To measure cell-based anti-HCV activity of the compounds of the present invention, replicon cells were seeded at 5000 cells/well in 96-well collagen I-coated Nunc plates in the presence of the compound of the invention. Various concentrations of a compound of the invention, typically in 10 serial 2-fold dilutions, were added to the assay mixture, the starting concentration of the compound ranging from 25 μM to 1 μM. The final concentration of DMSO was 0.5%, fetal bovine serum was 10%, in the assay media. Cells were harvested on day 3 by the addition of 1× cell lysis buffer (Ambion cat #8721). The replicon RNA level was measured using real time PCR (Taqman assay). The amplicon was located in 5B. The PCR primers were: 5B.2F, ATGGACAGGCGCCCTGA (SEQ. ID NO. 1); 5B.2R, […] (SEQ. ID NO. 2); the probe sequence was FAM-labeled CACGCCATGCGCTGCGG (SEQ. ID NO. 3). GAPDH RNA was used as endogenous control and was amplified in the same reaction as NS5B (multiplex PCR) using primers and VIC-labeled probe recommended by the manufacturer (PE Applied Biosystem). The real-time RT-PCR reactions were run on ABI PRISM 7900HT Sequence Detection System using the following program: 48′C for 30 min, 95° C. for 10 min, 40 cycles of 95° C. for 15 sec, 60° C. for 1 min. The ΔCT values (CT5B-CTGAPDH) were plotted against the concentration of test compound and fitted to the sigmoid dose-response model using GraphPad PRISM software. EC50 was defined as the concentration of inhibitor necessary to achieve ΔCT=1 over the projected baseline; EC90 the concentration necessary to achieve ΔCT=3.2 over the baseline. Alternatively, to quantitate the absolute amount of replicon RNA, a standard curve was established by including serially diluted T7 transcripts of replicon RNA in the Taqman assay. All Taqman reagents were from PE Applied Biosystems. Such an assay procedure was described in detail in e.g. Malcolm et al., Antimicrobial Agents and Chemotherapy 50: 1013-1020 (2006).
HCV Replicon assay data for compounds of the invention that were tested was obtained using the above method. Calculated EC90 values are reported for each compound in Table I as a falling within the following ranges: […]

Row | Compound | EC90 [µM]
1 | Cc1nc(NCC2CC2)nc(N[C@@H]2C[C@H](C(C)O)[C@@H](O)[C@H]2O)c1-c1nc2ccccc2s1 (single isomer, unassigned) [Example 1647] | 0.5 to 5
2 | Cc1nc(N[C@H](C)c2ccc(OC(F)(F)F)cc2)nc(N[C@@H]2C[C@H](C(C)O)[C@@H](O)[C@H]2O)c1-c1nc2ccccc2s1 (single isomer, unassigned) [Example 1646] | 0.5 to 5

Same assay, conditions: Hepatitis C virus, 72 h, HCV replicon cells, harvested day 3, replicon RNA by real time PCR; given as number; read-out: EC90 (μM) range

Row | Compound | EC90 [µM]
3 | Cc1nc(NCC2CC2)nc(N[C@@H]2C[C@H](CO)[C@@H](O)[C@H]2O)c1-c1cc2cc(OCC(F)(F)F)nc(C)c2o1 [Example 47] | 0.4
4 | CCCOc1cc2cc(-c3c(C)nc(NCCOC)nc3N[C@@H]3C[C@H](CO)[C@@H](O)[C@H]3O)oc2c(C)n1 [Example 35] | 0.1
5 | CON=C1[C@H](Nc2nc(NCC(F)(F)F)nc(C)c2-c2nc3ccccc3s2)C[C@H](CO)[C@H]1O [Example 55] | 3.4

Same assay, conditions: Hepatitis C virus, 72 h, HCV replicon cells, harvested day 3, replicon RNA by real time PCR; reported as range class; read-out: EC90 (μM) range

Row | Compound | EC90 [µM]
6 | CN(C)c1ccc2nc(-c3c(Cl)nc(N)nc3N[C@@H]3C[C@H](CO)[C@@H](O)[C@H]3O)sc2c1 [Example 115] | > 5
7 | CO[C@@H](C)CNc1nc(Cl)c(-c2nc3ccccc3s2)c(N[C@@H]2C[C@H](CO)[C@@H](O)[C@H]2O)n1 [Example 228] | < 0.5
8 | OC[C@H]1C[C@@H](Nc2nc(N3CCC3)nc(Cl)c2-c2nc3ccccc3s2)[C@H](O)[C@@H]1O [Example 413] | 0.5 to 5
9 | COC[C@H]1C[C@@H](Nc2nc(N(C)C)nc(Cl)c2-c2nc3ccccc3s2)[C@@H]2OC(C)(C)O[C@H]12 [Example 120] | > 5
10 | Cc1nc(NCCC(F)(F)F)nc(N[C@@H]2C[C@H](CO)[C@@H](O)[C@H]2O)c1-c1nc2ccccc2s1 [Example 218] | < 0.5
11 | OC[C@H]1C[C@@H](Nc2nc(N3CCOCC3)nc(Cl)c2-c2nc3ccccc3s2)[C@H](O)[C@@H]1O [Example 116] | 0.5 to 5
12 | CCOc1ccc2nc(-c3c(Cl)nc(N)nc3N[C@@H]3C[C@H](CO)[C@H]4OC(C)(C)O[C@H]43)sc2c1 [Example 195] | < 0.5
13 | COCc1cc2cc(-c3c(Cl)nc(N)nc3N[C@@H]3C[C@H](CO)[C@@H](O)[C@H]3O)oc2cn1 [Example 310] | < 0.5
14 | CCc1cc2cc(-c3c(Cl)nc(N)nc3N[C@@H]3C[C@H](CO)[C@@H](O)[C@H]3O)oc2c(C)n1 [Example 309] | < 0.5
15 | CCOc1cc2cc(-c3c(C)nc(NCCOC)nc3N[C@@H]3C[C@H](CO)[C@@H](O)[C@H]3O)oc2c(C)n1 [Example 31] | < 0.5
16 | CN(C)c1nc(N[C@@H]2C[C@H](CO)[C@@H](O)[C@H]2O)c(-c2nc3ccccc3s2)c(-c2ccccc2)n1 [Example 414] | > 5
17 | Nc1nc(Cl)c(-c2cnccn2)c(N[C@@H]2C[C@H](CO)[C@@H](O)[C@H]2O)n1 [Example 159] | > 5

Same assay, conditions: Hepatitis C virus, 72 h, HCV replicon cells, harvested on day 3, replicon RNA by real time PCR; calculated EC90 reported as range class; read-out: EC90 (μM) range

Row | Compound | EC90 [µM]
18 | Cc1nc(NCc2cccn2C)nc(N[C@@H]2C[C@H](CO)[C@H]3OC(C)(C)O[C@H]32)c1-c1nc2ccccc2s1 [Example 468] | < 0.5
19 | Cc1nc(NCc2ccccc2F)nc(N[C@@H]2C[C@H](CO)[C@@H](O)[C@H]2O)c1-c1nc2ccccc2s1 [Example 233] | < 0.5
20 | Cc1nc(NCCNC(=O)NC(C)(C)C)nc(N[C@@H]2C[C@H](CO)[C@H]3OC(C)(C)O[C@H]32)c1-c1nc2ccccc2s1 [Example 249] | > 5
21 | Cc1nc(NCc2cccs2)nc(N[C@@H]2C[C@H](CO)[C@@H](O)[C@H]2O)c1-c1nc2ccccc2s1 [Example 329] | < 0.5
22 | CCOCCNc1nc(C)c(-c2cc3cc(C(F)(F)F)ncc3o2)c(N[C@@H]2C[C@H](CO)[C@@H](O)[C@H]2O)n1 [Example 138] | < 0.5
23 | CCc1cc2cc(-c3c(Cl)nc(NCC4CC4)nc3N[C@@H]3C[C@H](CO)[C@@H](O)[C@H]3O)oc2cn1 [Example 503] | < 0.5
24 | OC[C@H]1C[C@@H](Nc2nc(NCc3ccccc3)nc(Cl)c2-c2nc3ccccc3s2)[C@H](O)[C@@H]1O [Example 430] | < 0.5
25 | CCc1cc2cc(-c3c(C)nc(NCc4nccs4)nc3N[C@@H]3C[C@H](CO)[C@@H](O)[C@H]3O)oc2cn1 [Example 342] | < 0.5
26 | CCCCCNc1nc(C)c(-c2cc3cc(CC)ncc3o2)c(N[C@@H]2C[C@H](CO)[C@@H](O)[C@H]2O)n1 [Example 514] | < 0.5
27 | Cc1nc(NCc2ccccc2C(F)(F)F)nc(N[C@@H]2C[C@H](CO)[C@@H](O)[C@H]2O)c1-c1nc2ccccc2s1 [Example 239] | 0.5 to 5
28 | Cc1cc2cc(-c3c(Cl)nc(N(C)C)nc3N[C@@H]3C[C@H](CO)[C@@H](O)[C@H]3O)oc2c(C)n1 [Example 420] | > 5
29 | CCc1cc2cc(-c3c(C)nc(NCC(C)C)nc3N[C@@H]3C[C@H](CO)[C@@H](O)[C@H]3O)oc2cn1 [Example 519] | < 0.5

Same assay, conditions: Hepatitis C virus, 72 h, HCV replicon cells, replicon RNA level by real time PCR (Taqman), harvested on day 3; calculated EC90 reported as range class; read-out: EC90 (μM) range

Row | Compound | EC90 [µM]
30 | Cc1ccc([C@@H](C)Nc2nc(C)c(-c3nc4c(C)nccc4s3)c(N[C@@H]3C[C@H](CO)[C@@H](O)[C@H]3O)n2)cc1 [Example 1320] | < 0.5
31 | CCc1cc2cc(-c3c(C)nc(NC)nc3N[C@@H]3C[C@H](CO)[C@@H](O)[C@H]3O)oc2cn1 [Example 527] | < 0.5
32 | Cc1nc(NC2(c3ccccc3)CC2)nc(N[C@@H]2C[C@H](CO)[C@@H](O)[C@H]2O)c1-c1nc2ccccc2s1 [Example 1232] | 0.5 to 5
33 | Cc1nc(NCC(C)(F)F)nc(N[C@@H]2C[C@H](CO)[C@@H](O)[C@H]2O)c1-c1nc2ccccc2s1 [Example 1242] | 0.5 to 5
34 | Cc1nc(Nc2ccccc2)nc(N[C@@H]2C[C@H](CO)[C@@H](O)[C@H]2O)c1-c1nc2cnccc2s1 [Example 1216] | 0.5 to 5
35 | CCc1nccc2sc(-c3c(C)nc(N[C@H](C)c4ccc(C)cc4)nc3N[C@@H]3C[C@H](CO)[C@@H](O)[C@H]3O)nc12 [Example 1335] | < 0.5
36 | Cc1nc(Nc2ccc(F)cc2)nc(N[C@@H]2C[C@H](CO)[C@@H](O)[C@H]2O)c1-c1nc2cnccc2s1 [Example 1053] | < 0.5
37 | Cc1nc(N[C@@H]2CCc3ccccc32)nc(N[C@@H]2C[C@H](CO)[C@@H](O)[C@H]2O)c1-c1nc2cnccc2s1 [Example 1312] | 0.5 to 5
38 | Cc1nc(NCC(C)(C)C)nc(N[C@@H]2C[C@H](CO)[C@@H](O)[C@H]2O)c1-c1cc2cc(C(C)(C)C)ncc2o1 [Example 1104] | > 5
39 | Cc1nc(NCC(F)(F)F)nc(N[C@H]2C[C@@H](CO)[C@H](O)[C@@H]2O)c1-c1nc2ccccc2s1 [Example 1060] | > 5
40 | CCOCCNc1nc(C)c(-c2nc3ccccc3o2)c(N[C@@H]2C[C@H](CO)[C@@H](O)[C@H]2O)n1 [Example 529] | < 0.5

Same assay, conditions: Hepatitis C virus, 72 h, HCV replicon cells, replicon RNA level by real time PCR, harvested day 3; read-out: EC90 (μM) range

Row | Compound | EC90 [µM]
41 | Cc1nc(NCC(C)(C)C)nc(N[C@H]2C[C@@H](CO)[C@H](O)[C@@H]2O)c1-c1nc2ccccc2s1 [Example 1502] | > 5
42 | Cc1nc(NCC2CC2)nc(NC2CC(CO)(CO)C2)c1-c1nc2ccccc2s1 [Example 1610] | 0.5 to 5
43 | Cc1nc(NCC2CC2)nc(N[C@@H]2C[C@H](CO)[C@@H](O)[C@H]2O)c1-c1nc2c(CC(C)C)nccc2s1 [Example 1370] | < 0.5
44 | CCOc1cc2sc(-c3c(C)nc(N[C@H](C)c4ccc(C)cc4)nc3N[C@@H]3C[C@H](CO)[C@@H](O)[C@H]3O)nc2c(C)n1 [Example 1375] | < 0.5
45 | Cc1nc(NCCc2cccs2)nc(N[C@@H]2C[C@H](CO)[C@@H](O)[C@H]2O)c1-c1nc2cnccc2s1 [Example 1806] | > 5
46 | Cc1nc(NCC(F)(F)F)nc(NC2CCNCC2)c1-c1nc2ccccc2s1 [Example 1516] | 0.5 to 5
47 | Cc1nc(NCC2CC2)nc(N[C@@H]2C[C@H](C(C)O)[C@@H](O)[C@H]2O)c1-c1nc2cnccc2s1 (stereo partly drawn) [Example 1641] | < 0.5
48 | Cc1nc(NCC(F)(F)F)nc(N[C@@H]2C[C@H](CC#N)[C@@H](O)[C@H]2O)c1-c1nc2ccccc2s1 [Example 1635] | < 0.5
49 | CCCc1nccc2sc(-c3c(C)nc(N[C@H](C)c4ccc(C)cc4)nc3N[C@@H]3C[C@H](CO)[C@@H](O)[C@H]3O)nc12 [Example 1371] | < 0.5
50 | Cc1nc(NCc2cc3cnn(C(=O)OC(C)(C)C)c3cc2F)nc(N[C@@H]2C[C@H](CO)[C@H]3OC(C)(C)O[C@H]32)c1-c1nc2ccccc2s1 [Example 1908] | 0.5 to 5
51 | Cc1nc(NCC(F)(F)F)nc(N[C@H]2CN[C@@H](CO)C2)c1-c1nc2ccccc2s1 [Example 1349] | > 5
